Results published in ChEMBL document CHEMBL1201862, “PubChem BioAssay data set” (2004).
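These data come from cells grown in 96-well plates and exposed to compound for 48 hours at five concentrations. Abbreviation: GI50, concentration required for 50% inhibition of growth.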 Active and inactive are the calls of the source. No stated cut-off is given here; in the data, active = GI50 up to about 1.1 µM and inactive = higher.

Legend:
Test in all cases: DTP human tumour cell line panel, 48 h
SF-268 = tested on: SF-268
ACHN = tested on: ACHN
UACC-62 = tested on: UACC-62
SK-MEL-2 = tested on: SK-MEL-2
PC-3 = tested on: PC-3
IGROV-1 = tested on: IGROV-1
NCI/ADR-RES = tested on: NCI/ADR-RES
SK-OV-3 = tested on: SK-OV-3
MOLT-4 = tested on: MOLT-4
SK-MEL-5 = tested on: SK-MEL-5
SF-295 = tested on: SF-295
HT-29 = tested on: HT-29
UACC-257 = tested on: UACC-257
OVCAR-5 = tested on: OVCAR-5
CAKI-1 = tested on: CAKI-1
NCI-H23 = tested on: NCI-H23
A498 = tested on: A498
U-251 = tested on: U-251
RPMI-8226 = tested on: RPMI-8226
HL-60 = tested on: HL-60

Compound | GI50 (SF-268) | GI50 (ACHN) | GI50 (UACC-62) | GI50 (SK-MEL-2) | GI50 (PC-3) | GI50 (IGROV-1) | GI50 (NCI/ADR-RES) | GI50 (SK-OV-3) | GI50 (MOLT-4) | GI50 (SK-MEL-5) | GI50 (SF-295) | GI50 (HT-29) | GI50 (UACC-257) | GI50 (OVCAR-5) | GI50 (CAKI-1) | GI50 (NCI-H23) | GI50 (A498) | GI50 (U-251) | GI50 (RPMI-8226) | GI50 (HL-60)
CC(C)C(=O)OCC1OC(n2c(Br)nc3c(=O)[nH]c(N)nc32)C(OC(=O)C(C)C)C1OC(=O)C(C)C (stereo not given) | 37.1 µM (inactive) | > 100 µM (inactive) | 31.8 µM (inactive) | 68.1 µM (inactive) | 21.6 µM (inactive) | > 10 µM (inactive) | > 100 µM (inactive) | 30.3 µM (inactive) | 19.3 µM (inactive) | > 10 µM (inactive) | 21.2 µM (inactive) | 17.8 µM (inactive) | > 100 µM (inactive) | 75.2 µM (inactive) |  |  |  |  |  | 
O=C1Oc2ccccc2N/C1=C/C(=O)c1ccc([N+](=O)[O-])cc1 | > 100 µM (inactive) | > 100 µM (inactive) | 45.8 µM (inactive) | > 100 µM (inactive) | 80.7 µM (inactive) | > 100 µM (inactive) | > 100 µM (inactive) | > 100 µM (inactive) | > 100 µM (inactive) | > 100 µM (inactive) | > 100 µM (inactive) | > 100 µM (inactive) | > 100 µM (inactive) | > 100 µM (inactive) | > 100 µM (inactive) | > 100 µM (inactive) | > 100 µM (inactive) | > 100 µM (inactive) |  | 
Clc1ccc(-c2nn3c(-c4ccncc4)nnc3s2)cc1 | 37.4 µM (inactive) | 61 µM (inactive) | > 100 µM (inactive) | > 100 µM (inactive) | > 100 µM (inactive) | 64.4 µM (inactive) | > 100 µM (inactive) | 40.1 µM (inactive) | > 100 µM (inactive) | > 100 µM (inactive) | 62.1 µM (inactive) | > 100 µM (inactive) | > 100 µM (inactive) | > 100 µM (inactive) | > 100 µM (inactive) | > 100 µM (inactive) |  | 25.9 µM (inactive) | > 100 µM (inactive) | > 100 µM (inactive)
Cn1cc(-c2ccc3c4ccccc4n(C)c3c2)c2ccccc21 | > 100 µM (inactive) | > 100 µM (inactive) | > 100 µM (inactive) | > 100 µM (inactive) |  | > 100 µM (inactive) |  | > 100 µM (inactive) | > 100 µM (inactive) | > 100 µM (inactive) | 94.4 µM (inactive) | 89.9 µM (inactive) | > 100 µM (inactive) | > 100 µM (inactive) | > 100 µM (inactive) | > 100 µM (inactive) | > 100 µM (inactive) | > 100 µM (inactive) | > 100 µM (inactive) | 75 µM (inactive)
CCCCCCCCCCOC(=O)c1cc[n+](C)cc1 | 20 µM (inactive) | 18.6 µM (inactive) | 16.8 µM (inactive) | 17.3 µM (inactive) |  | 16.6 µM (inactive) |  | 16 µM (inactive) | 18.2 µM (inactive) | 19.1 µM (inactive) | 16.7 µM (inactive) | 16.7 µM (inactive) | 19.8 µM (inactive) | 13.6 µM (inactive) | 16.6 µM (inactive) | 19.9 µM (inactive) | 15.6 µM (inactive) | 15.7 µM (inactive) | 16.3 µM (inactive) | 17.8 µM (inactive)
OCC1OC(n2nc(-c3ccccc3)nc2-c2cnccn2)C(O)C(O)C1O (stereo not given) |  |  | > 100 µM (inactive) |  | > 100 µM (inactive) | > 100 µM (inactive) | > 100 µM (inactive) | > 100 µM (inactive) | > 100 µM (inactive) | > 100 µM (inactive) | > 100 µM (inactive) | > 100 µM (inactive) | > 100 µM (inactive) | > 100 µM (inactive) |  | > 100 µM (inactive) |  | > 100 µM (inactive) | > 100 µM (inactive) | > 100 µM (inactive)
NCCCC[C@H](N)C(=O)Nc1ccc(-c2nc3ccccc3s2)cc1Cl | 8.34 µM (inactive) | 13.4 µM (inactive) | 14.6 µM (inactive) | 16.8 µM (inactive) | 14.9 µM (inactive) | < 0.01 µM (active) | 16.5 µM (inactive) | 16.3 µM (inactive) | 3 µM (inactive) | 12.5 µM (inactive) | 5 µM (inactive) | 6.79 µM (inactive) | 14.1 µM (inactive) | 0.34 µM (active) | 4.85 µM (inactive) |  | 0.149 µM (active) | 2.65 µM (inactive) |  | 
CC(=O)C1(C(=O)C(=[N+]=[N-])S(=O)(=O)c2ccccc2)CC1 | > 100 µM (inactive) | > 100 µM (inactive) | > 100 µM (inactive) | > 100 µM (inactive) | > 100 µM (inactive) | > 100 µM (inactive) | > 100 µM (inactive) |  | 83.8 µM (inactive) | > 100 µM (inactive) | > 100 µM (inactive) | > 100 µM (inactive) | > 100 µM (inactive) | > 100 µM (inactive) |  | > 100 µM (inactive) |  | > 100 µM (inactive) | 83.2 µM (inactive) | 74.1 µM (inactive)
Cc1c[n+]2c3ccccc3c3ccccc3c2s1.[O-][Cl+3]([O-])([O-])[O-] | 0.697 µM (active) | 42.6 µM (inactive) | 14.1 µM (inactive) | 12.4 µM (inactive) |  | 29.4 µM (inactive) |  | 10.7 µM (inactive) | 2.03 µM (inactive) | 5.35 µM (inactive) | 5.97 µM (inactive) | 14.1 µM (inactive) | 4.26 µM (inactive) | 1.77 µM (inactive) | 3.2 µM (inactive) | 0.422 µM (active) | 55.6 µM (inactive) | 0.368 µM (active) | 8.15 µM (inactive) | 14.2 µM (inactive)
Cc1cccc(NC(=O)/C=C/c2ccc(N(CCC#N)CCC#N)cc2C)c1 | 81.5 µM (inactive) | 70.3 µM (inactive) | 28 µM (inactive) | > 100 µM (inactive) |  | > 100 µM (inactive) |  | > 100 µM (inactive) | > 100 µM (inactive) | > 100 µM (inactive) | > 100 µM (inactive) | > 100 µM (inactive) | > 100 µM (inactive) | > 100 µM (inactive) | > 100 µM (inactive) | > 100 µM (inactive) | > 100 µM (inactive) | > 100 µM (inactive) | > 100 µM (inactive) | 21.5 µM (inactive)
C=C(C)C(O)C(O)C[C@@H](C)C1CC[C@]23C[C@]12CCC1[C@@]2(C)CCC(OC(C)=O)C(C)(C)C2CC(OC2OC(CO)C(O)C(O)C2O)[C@]13C (stereo not given in full) | 18.3 µM (inactive) | 31.6 µM (inactive) | 17.7 µM (inactive) | 16.6 µM (inactive) | 18.4 µM (inactive) | 15.3 µM (inactive) | > 100 µM (inactive) | 20.9 µM (inactive) | 18.5 µM (inactive) | 18.9 µM (inactive) | 18.9 µM (inactive) | 18.2 µM (inactive) | 17 µM (inactive) | 20.9 µM (inactive) | > 100 µM (inactive) | 19.2 µM (inactive) |  | 15.7 µM (inactive) | 21.5 µM (inactive) | 18.1 µM (inactive)
COc1ccc(C2=C(OC(=O)N(C)C)c3cccn3-c3cc(Cl)ccc3S2)cc1 | > 10 µM (inactive) |  | > 10 µM (inactive) |  | 5.64 µM (inactive) | > 10 µM (inactive) |  | > 10 µM (inactive) | 7.89 µM (inactive) | > 10 µM (inactive) | > 10 µM (inactive) | > 10 µM (inactive) | > 10 µM (inactive) |  | > 10 µM (inactive) | > 10 µM (inactive) |  |  | 2.73 µM (inactive) | 6.1 µM (inactive)
